Biological target: purified human Factor XIa (Homo sapiens (Human), UniProt P03951)
Test: Factor XIa Assay
Assay type: biochemical
Conditions: purified human Factor XIa 40 pM, substrate Z-Gly-Pro-Arg-AFC, pH 7.4; read-out: FXIa IC50
Experimental: The effectiveness of a compound of the present invention as an inhibitor of Coagulation Factor XIa can be determined using a relevant purified serine protease, and an appropriate synthetic substrate. The rate of hydrolysis of the chromogenic or fluorogenic substrate by the relevant serine protease was measured both in the absence and presence of compounds of the present invention. Assays were conducted at room temperature or at 37° C. […] A decrease in the rate of fluorescence change in the presence of inhibitor is indicative of enzyme inhibition. Such methods are known to one skilled in the art. […]
Factor XIa determinations were made in 50 mM HEPES buffer at pH 7.4 containing 150 mM NaCl, 5 mM CaCl2, and 0.1% PEG 8000 (polyethylene glycol; JT Baker or Fisher Scientific). Determinations were made using purified human Factor XIa at a final concentration of 40 pM (Sekisui Diagnostics) and he synthetic substrate, Z-Gly-Pro-Arg-AFC, TFA salt (Sigma #C0980) at a concentration of 100 µM.
Activity assays were performed by diluting a stock solution of substrate at least tenfold to a final concentration ≦0.1 Km into a solution containing enzyme or enzyme equilibrated with inhibitor. Times required to achieve equilibration between enzyme and inhibitor were determined in control experiments. Initial velocities of product formation in the absence (Vo) or presence of inhibitor (Vi) were measured. Assuming competitive inhibition, and that unity is negligible compared Km/[S], [I]/e, and [I]/e (where [S], [I], and e respectively represent the total concentrations, of substrate, inhibitor and enzyme), the equilibrium constant (Ki) for dissociation of the inhibitor from the enzyme can be obtained from the dependence of Vo/Vi on [I] shown in the following equation.

purified human Factor XIa, sequence (P03951 388-625): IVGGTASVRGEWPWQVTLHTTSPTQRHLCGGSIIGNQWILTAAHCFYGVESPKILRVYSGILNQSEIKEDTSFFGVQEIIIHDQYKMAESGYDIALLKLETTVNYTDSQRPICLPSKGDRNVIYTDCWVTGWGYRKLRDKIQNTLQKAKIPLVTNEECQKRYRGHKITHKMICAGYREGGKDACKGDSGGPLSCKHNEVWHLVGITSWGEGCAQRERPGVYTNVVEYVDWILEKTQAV
purified human Factor XIa, sequence (P03951 19-387 partner): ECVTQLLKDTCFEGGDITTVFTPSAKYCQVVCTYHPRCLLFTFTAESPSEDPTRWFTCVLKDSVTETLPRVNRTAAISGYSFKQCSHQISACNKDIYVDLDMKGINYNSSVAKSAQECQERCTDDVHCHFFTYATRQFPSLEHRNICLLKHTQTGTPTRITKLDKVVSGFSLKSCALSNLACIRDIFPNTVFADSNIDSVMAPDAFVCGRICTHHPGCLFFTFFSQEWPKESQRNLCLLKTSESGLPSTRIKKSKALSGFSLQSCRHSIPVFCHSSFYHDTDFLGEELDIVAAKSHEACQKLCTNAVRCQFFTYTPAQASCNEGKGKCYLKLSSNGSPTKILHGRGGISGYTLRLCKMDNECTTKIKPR

SMILES	IC50 [nM]
O=C(O)c1ccc(NC(=O)C(O)c2ccc(-c3cc(Cl)ccc3C3CC3)c[n+]2[O-])cc1 (racemic) [Example 11, 4-({[5-(5-chloro-2-cyclopropylphenyl)-1-oxidopyridin-2-yl](hydroxy)acetyl}amino)benzoic acid]	2510
O=C(NC12CCC(C(=O)O)(CC1)CC2)C(Cc1ccccc1)c1ccc(-c2c(F)ccc(Cl)c2F)c[n+]1[O-] (single isomer, unassigned) [Example 16, 4-({2-[5-(3-chloro-2,6-difluorophenyl)-1-oxidopyridin-2-yl]-3-phenylpropanoyl}amino) bicyclo[2.2.2]octane-1-carboxylic acid]	10000
COC(=O)NC12CCC(NC(=O)C(Cc3ccccc3)c3ccc(-c4cc(Cl)ccc4-n4cnnn4)c[n+]3[O-])(CC1)CC2 (single isomer, unassigned) [Example 20, methyl {4-[(2-{5-[5-chloro-2-(1H-tetrazol-1-yl)phenyl]-1-oxidopyridin-2-yl}-3-phenylpropanoyl)amino]bicyclo[2.2.2]oct-1-yl}carbamate]	1000
O=C(O)c1ccc(NC(=O)C(CC2CC2)c2ccc(-c3cc(Cl)ccc3-n3cnnn3)c[n+]2[O-])c(Cl)c1 (single isomer, unassigned) [Example 31, 3-chloro-4-[(2-{5-[5-chloro-2-(1H-tetrazol-1-yl)phenyl]-1-oxidopyridin-2-yl}-3-cyclopropylpropanoyl)amino]benzoic acid]	752
O=C(O)c1ccc(NC(=O)C(CC2CC2)c2ccc(-c3cc(Cl)ccc3OC(F)(F)F)c[n+]2[O-])cc1 (single isomer, unassigned) [Example 38, 4-[(2-{5-[5-chloro-2-(trifluoromethoxy)phenyl]-1-oxidopyridin-2-yl}-3-cyclopropylpropanoyl)amino]benzoic acid]	1000
Cc1cc(C(=O)O)ccc1NC(=O)C(CC1CC1)c1ccc(-c2cc(Cl)ccc2-n2cnnn2)c[n+]1[O-] (single isomer, unassigned) [Example 46, 4-[(2-{5-[5-chloro-2-(1H-tetrazol-1-yl)phenyl]-1-oxidopyridin-2-yl}-3-cyclopropylpropanoyl)amino]-3-methylbenzoic acid]	1000
O=C(O)c1ccc(NC(=O)[C@@H](Cc2ccccc2)c2ccc(-c3c(F)ccc(Cl)c3F)c[n+]2[O-])cc1 [Example 3, 4-({(2S)-2-[5-(3-chloro-2,6-difluorophenyl)-1-oxidopyridin-2-yl]-3-phenylpropanoyl}amino) benzoic acid]	825
O=C(Cc1ccc(-c2cc(Cl)ccc2C2CC2)c[n+]1[O-])Nc1ccc(C(=O)O)cc1 [Example 10, 4-({[5-(5-chloro-2-cyclopropylphenyl)-1-oxidopyridin-2-yl]acetyl}amino) benzoic acid]	2190
O=C(Cc1ccc(-c2cc(Cl)ccc2OC(F)F)c[n+]1[O-])Nc1ccc(C(=O)O)cc1 [Example 12, 4-[({5-[5-chloro-2-(difluoromethoxy)phenyl]-1-oxidopyridin-2-yl}acetyl)amino] benzoic acid]	711
Cc1c(-c2c(F)ccc(Cl)c2F)ccc(C(Cc2ccccc2)C(=O)Nc2ccc(C(=O)O)cc2)[n+]1[O-] (stereo not shown) [Example 26, 6-(1-((4-carboxyphenyl)amino)-1-oxo-3-phenylpropan-2-yl)-3-(3-chloro-2,6-difluorophenyl)-2-methylpyridine 1-oxide]	693

Second part, the compound after the results:

IC50 [nM]	SMILES
134	O=C(O)c1ccc(NC(=O)C(CC2CC2)c2ccc(-c3c(F)ccc(Cl)c3F)c[n+]2[O-])cc1 (racemic) [Example 33, 4-({2-[5-(3-chloro-2,6-difluorophenyl)-1-oxidopyridin-2-yl]-3-cyclopropylpropanoyl}amino)benzoic acid]
94.5	Cc1cc(NC(=O)C(CC2CC2)c2ccc(-c3cc(Cl)ccc3-c3cnco3)c[n+]2[O-])ccc1C(=O)O (racemic) [Example 36, 4-[(2-{5-[5-chloro-2-(1,3-oxazol-5-yl)phenyl]-1-oxidopyridin-2-yl}-3-cyclopropylpropanoyl)amino]-2-methyl-benzoic acid]
228	Cc1cc(NC(=O)C(CC2CC2)c2ccc(-c3cc(Cl)ccc3CN)c[n+]2[O-])ccc1C(=O)O (racemic) [Example 37, 4-[(2-{5-[2-(aminomethyl)-5-chlorophenyl]-1-oxidopyridin-2-yl}-3-cyclopropylpropanoyl)amino]-2-methylbenzoic acid]
53.6	O=C(O)c1ccc(NC(=O)C(CC2CC2)c2ccc(-c3cc(Cl)ccc3-c3nccs3)c[n+]2[O-])cc1 (racemic) [Example 43, 4-[(2-{5-[5-chloro-2-(1,3-thiazol-2-yl)phenyl]-1-oxidopyridin-2-yl}-3-cyclopropylpropanoyl)amino]benzoic acid]
271	O=C(NC12CCC(C(=O)O)(CC1)CC2)C(Cc1ccccc1)c1ccc(-c2cc(Cl)ccc2-n2cnnn2)c[n+]1[O-] (single isomer, unassigned) [Example 18, 4-[(2-{5-[5-chloro-2-(1H-tetrazol-1-yl)phenyl]-1-oxidopyridin-2-yl}-3-phenylpropanoyl)amino] bicyclo[2.2.2]octane-1-carboxylic acid]
458	N#Cc1ccc(Cl)c(F)c1-c1ccc(C(CC2CC2)C(=O)Nc2ccc(C(=O)O)cc2)[n+]([O-])c1 (single isomer, unassigned) [Example 29, 4-({2-[5-(3-chloro-6-cyano-2-fluorophenyl)-1-oxidopyridin-2-yl]-3-cyclopropylpropanoyl}amino)benzoic acid]
443	O=C(O)c1ccc(NC(=O)C(CC2CC2)c2ccc(-c3cc(Cl)ccc3-c3cnco3)c[n+]2[O-])cc1 (single isomer, unassigned) [Example 34, 4-[(2-{5-[5-chloro-2-(1,3-oxazol-5-yl)phenyl]-1-oxidopyridin-2-yl}-3-cyclopropylpropanoyl)amino]benzoic acid]
57	Cc1cc(NC(=O)C(CC2CC2)c2ccc(-c3cc(Cl)ccc3-n3cnnn3)c[n+]2[O-])ccc1C(=O)O (single isomer, unassigned) [Example 49, 4-[(2-{5-[5-chloro-2-(1H-tetrazol-1-yl)phenyl]-1-oxidopyridin-2-yl}-3-cyclopropylpropanoyl)amino]-2-methylbenzoic acid]
388	O=C(Cc1ccc(-c2cc(Cl)ccc2C(F)F)c[n+]1[O-])Nc1ccc(C(=O)O)cc1 [Example 13, 4-[({5-[5-chloro-2-(difluoromethyl)phenyl]-1-oxidopyridin-2-yl}acetyl)amino] benzoic acid]
0.52	O=C(O)c1ccc(NC(=O)[C@H](Cc2ccccc2)c2ccc(-c3cc(Cl)ccc3-c3cnco3)c[n+]2[O-])cc1 [Example 21, 4-{[(2R)-2-{5-[5-chloro-2-(1,3-oxazol-5-yl)phenyl]-1-oxidopyridin-2-yl}-3-phenylpropanoyl]amino} benzoic acid]
364	O=C(O)c1ccc(NC(=O)[C@@H](Cc2ccccc2)c2ccc(-c3cc(Cl)ccc3-c3cnco3)c[n+]2[O-])cc1 [Example 22, 4-{[(2S)-2-{5-[5-chloro-2-(1,3-oxazol-5-yl)phenyl]-1-oxidopyridin-2-yl}-3-phenylpropanoyl]amino} benzoic acid]

Biological target: purified Human plasma kallikrein (Homo sapiens (Human), UniProt P03952)
Sequence (P03952 391-638): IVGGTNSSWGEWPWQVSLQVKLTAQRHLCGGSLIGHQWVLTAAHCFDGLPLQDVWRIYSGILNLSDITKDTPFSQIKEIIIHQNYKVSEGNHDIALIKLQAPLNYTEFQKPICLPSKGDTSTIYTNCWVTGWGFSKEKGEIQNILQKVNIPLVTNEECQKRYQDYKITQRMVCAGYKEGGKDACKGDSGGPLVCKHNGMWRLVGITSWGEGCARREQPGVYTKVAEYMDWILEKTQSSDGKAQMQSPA
Sequence (P03952 20-390 partner): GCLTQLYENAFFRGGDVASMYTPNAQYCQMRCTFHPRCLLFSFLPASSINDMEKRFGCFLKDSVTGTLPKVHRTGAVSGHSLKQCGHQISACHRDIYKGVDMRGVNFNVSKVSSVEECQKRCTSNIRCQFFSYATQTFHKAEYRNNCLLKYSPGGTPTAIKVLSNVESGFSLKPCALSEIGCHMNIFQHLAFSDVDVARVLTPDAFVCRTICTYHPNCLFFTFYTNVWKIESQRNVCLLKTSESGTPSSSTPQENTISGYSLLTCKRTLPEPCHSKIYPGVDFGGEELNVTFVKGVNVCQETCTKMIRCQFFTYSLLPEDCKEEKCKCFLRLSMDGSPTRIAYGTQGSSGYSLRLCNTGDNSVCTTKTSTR
Test: Kallikrein Assay
Assay type: biochemical
Conditions: purified Human plasma kallikrein 0.5 nM, substrate Acetyl-K-P-R-AFC, pH 7.4; read-out: P. KLK IC50
Experimental: The effectiveness of a compound of the present invention as an inhibitor of Kallikrein can be determined using a relevant purified serine protease, and an appropriate synthetic substrate. The rate of hydrolysis of the chromogenic or fluorogenic substrate by the relevant serine protease was measured both in the absence and presence of compounds of the present invention. Assays were conducted at room temperature or at 37° C. […] A decrease in the rate of fluorescence change in the presence of inhibitor is indicative of enzyme inhibition. Such methods are known to one skilled in the art. The results of this assay are expressed as the inhibitory constant, Ki.
Kallikrein determinations were made in 50 mM HEPES buffer at pH 7.4 containing 150 mM NaCl, 5 mM CaCl2, and 0.1% PEG 8000 (polyethylene glycol; Fisher Scientific). Determinations were made using purified Human plasma kallikrein at a final concentration of 0.5 nM (Enzyme Research Laboratories) and the synthetic substrate, Acetyl-K-P-R-AFC (Sigma # C6608) at a concentration of […].
Activity assays were performed by diluting a stock solution of substrate at least tenfold to a final concentration ≦0.2 Km into a solution containing enzyme or enzyme equilibrated with inhibitor. Times required to achieve equilibration between enzyme and inhibitor were determined in control experiments. The reactions were performed under linear progress curve conditions and fluorescence increase measured at 405 Ex/510 Em nm. Values were converted to percent inhibition of the control reaction (after subtracting 100% Inhibition value). IC50 was determined by inflection point from a four parameter logistic curve fit. Ki was calculated using the Cheng Prusoff equation, Ki=IC50/(1+([S]/Km)).

IC50 [nM]	SMILES
363	O=C(O)c1ccc(NC(=O)C(CC2CC2)c2ccc(-c3cc(Cl)ccc3-n3cc(C(F)F)nn3)c[n+]2[O-])cc1 (racemic) [Example 41, 4-{[2-(5-{5-chloro-2-[4-(difluoromethyl)-1H-1,2,3-triazol-1-yl]phenyl}-1-oxidopyridin-2-yl)-3-cyclopropylpropanoyl]amino}benzoic acid]

Reference: patent publication US9783530B2, “Factor Xla inhibitors” (Merck Sharp & Dohme Corp., priority 2014, dated 2017)
